For this experiment, the target named is Ubiquitin-conjugating enzyme E2 N (Homo sapiens) (UniProt P61088). Put plainly: UBE2N binders by NMR, biophysical, purified protein (AID 1552). Particulars: NMR binding to purified UBE2N.

Calls of active or inactive are those of the source. How the calls were made is not given here. Some results are limits rather than exact numbers.

In general, Kd refers to the constant that tells how readily two partners part at equilibrium.

Ubiquitin-conjugating enzyme E2 N (Homo sapiens), sequence (P61088 whole entry, looked up): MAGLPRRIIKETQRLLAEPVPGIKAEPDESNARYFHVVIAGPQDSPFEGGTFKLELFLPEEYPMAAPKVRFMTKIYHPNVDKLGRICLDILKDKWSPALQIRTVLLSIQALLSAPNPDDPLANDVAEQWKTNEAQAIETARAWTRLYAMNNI

On to `CN(C)c1nc(N)nc(Cn2ccnc2)n1`, for which the Kd was > 4 mM (inactive).
In the case of `COC(=O)C1Cc2ccccc2N1` (configuration not stated), the Kd was > 4 mM (inactive).
The same measure for `Cc1cc(C)c2ccc[n+]([O-])c2c1O`: > 4 mM (inactive).
For `Nc1nc2[nH]c(=O)c(=O)[nH]c2c(=O)[nH]1`, the Kd was > 4 mM (inactive).
For `Cc1n[nH]c(=S)n(/N=C/c2cccs2)c1=O`, the Kd was > 4 mM (inactive).
Under `Cc1noc(C)c1C(=O)Nc1ccccn1` stands > 4 mM (inactive).
For `COc1cc(OC)c2c(OC)c(-c3ccc4c(c3)OCO4)c(=O)oc2c1`, the Kd is > 4 mM (inactive).
Turning to `N=c1n(N)c2ccccc2n1CCO`, the Kd was > 4 mM (inactive).
For `O=C(c1ccc(Cl)s1)N1CCOCC1`, the Kd is > 4 mM (inactive).
Regarding `O=C(O)Cn1nnnc1-c1ccc(F)cc1`, the Kd was > 4 mM (inactive).
The same measure for `Nc1ncnc2nc(SCCN3CCCCC3)[nH]c12`: > 4 mM (inactive); for `O=C1CC(c2ccccc2)n2ncnc2N1` (configuration not stated): > 4 mM (inactive).
For the compound `O=c1ccc2nc3ccccc3c(=O)n2[nH]1`, the Kd is > 4 mM (inactive).
Turning to `O=C(O)c1ccc(N2CCOCC2)nc1`, the Kd was > 4 mM (inactive).
The same measure for `CC(C)(C)NC(=O)N1CCC(C(=O)O)CC1`: > 4 mM (inactive).
Take `CC(C)c1ccc2c(c1)CCC1C(C)(C(N)=O)CCCC21C` (configuration not stated): the Kd is > 4 mM (inactive).
Regarding `Cc1nc2sc3c(c2c(=N)n1N)CC(C)(C)OC3`, the Kd was > 4 mM (inactive).
With `Cn1nc(C(C)(C)C)cc1N`, the Kd is > 4 mM (inactive).
In the case of `CC(C)=CCOc1c2occc2cc2ccc(=O)oc12`, the Kd was > 4 mM (inactive).
Regarding `O=C(O)c1ccc2occc2c1`, the Kd is > 4 mM (inactive).
Turning to `NC1=C(c2ccccc2)C(=O)c2ccccc21`, the Kd was > 4 mM (inactive).
For `CCCCCCCCCCCCCCC(C(=O)OC)C(O)(CC(=O)OC)C(=O)OC` (configuration not stated), the Kd is > 4 mM (inactive).
Take `CN1CCN(CC(=O)N2CCc3ccccc32)CC1`: the Kd is > 4 mM (inactive).
With `CS(=O)(=O)N1CCN(C(=O)Cc2cccs2)CC1`, the Kd is > 4 mM (inactive).
In the case of `O=C1CCC([N+](=O)[O-])C(c2ccccc2F)N1` (configuration not stated), the Kd is > 4 mM (inactive).
For the compound `Cc1cc(C(=O)NCc2cccs2)cs1`, the Kd is > 4 mM (inactive).
As for `COC(=O)CSc1nnc(-c2ccc(C(=O)O)cc2)o1`, the Kd is > 4 mM (inactive).
Under `CC(=O)OC[C@@]1(O)C[C@@]23CCC4c5ccoc5CC[C@]4(C)C2CC[C@@H]1C3` (some centres not stated) stands > 4 mM (inactive).
On to `CCc1c(C)[nH]c(=S)c(C(N)=O)c1C`, for which the Kd is > 4 mM (inactive).
Under `O=S(=O)(NCc1ccco1)N1CCOCC1` stands > 4 mM (inactive); under `O=c1ccn(Cc2ccccc2)c(=O)[nH]1`, > 4 mM (inactive).
Regarding `COc1ccccc1/C=C/CN1CCOCC1`, the Kd was > 4 mM (inactive).
Turning to `Cc1nc2c(=O)[nH]c3ccccc3c2o1`, the Kd is > 4 mM (inactive).
With `CC1CCC(N2CCN(c3ncccn3)CC2)CC1` (configuration not stated), the Kd was > 4 mM (inactive).
Take `CN(C)S(=O)(=O)c1ccc(C(=O)NN)cc1`: the Kd is > 4 mM (inactive).
Turning to `Cc1oc(S(=O)(=O)N2CCCCC2)cc1C(=O)O`, the Kd was > 4 mM (inactive).
Turning to `COc1ccc(-c2cc(=O)c3cc(OC)ccc3o2)cc1`, the Kd was > 4 mM (inactive).
Under `NS(=O)(=O)c1ccc(NC(=O)c2ccccc2F)cc1` stands > 4 mM (inactive).
In the case of `CCC(CO)NC(=O)c1snnc1C` (configuration not stated), the Kd is > 4 mM (inactive).
Take `O=C1NC(=O)C(C2SC(=O)NC2=O)S1` (configuration not stated): the Kd was > 4 mM (inactive).
The same measure for `CN=C(C)c1c(O)n(C)c(=S)n(C)c1=O`: > 4 mM (inactive); for `CC1=NNC(=O)C1CCc1ccncc1` (configuration not stated): > 4 mM (inactive).
The same measure for `Cc1c(C)c2c(c(C)c1O)CCC(C)(CCCC(C)CCCC(C)CCCC(C)C)O2` (configuration not stated): > 4 mM (inactive).
As for `O=C1NC(=S)N/C1=C\c1ccccc1F`, the Kd was > 4 mM (inactive).
As to `CC(C)[C@@H]1CC[C@@H](C)C[C@H]1O`, the Kd is > 4 mM (inactive).
As to `COC(=O)C[C@@H]1C2(C)C(=O)[C@@H](CC3=C4C=C(OC)O[C@@H](c5ccoc5)[C@]4(C)CCC32)[C@H](O)C1(C)C` (some centres not stated), the Kd was > 4 mM (inactive).
On to `COC(=O)[C@@H]1OC(=O)C2OC23[C@@]1(C)CCC1[C@]2(C)C(C[C@@H](O)[C@]13C)C(C)(C)[C@H](OC(C)=O)C[C@@H]2OC(C)=O` (some centres not stated), for which the Kd was > 4 mM (inactive).
Under `CC12CCC3C(CC3(C)C)C(C)(CCC1=O)O2` (configuration not stated) stands > 4 mM (inactive); under `COc1cc(-c2coc3cc(O[C@@H]4O[C@H](CO)[C@@H](O)[C@H](O)[C@H]4O)c(OC)c(O)c3c2=O)cc(O)c1OC`, > 4 mM (inactive).
Consider `COC(=O)[C@]1(C)CC[C@]2(C)CC[C@]3(C)C4=CC=C5C(=CC(=O)C(O)=C5C)[C@]4(C)CC[C@@]3(C)[C@@H]2C1`, for which the Kd is > 4 mM (inactive).
In the case of `CCC(=O)n1nc(-c2ccco2)nc1N`, the Kd is > 4 mM (inactive).
The same measure for `O=C(NCc1ccco1)c1ccc(=O)[nH]c1`: > 4 mM (inactive); for `C=Cc1c(C)c2cc3[nH]c(cc4nc(cc5nc(cc1[nH]2)C(C)=C5CCC(=O)O)C(CCC(=O)O)=C4C)c(C)c3C=C`: > 4 mM (inactive).
For the compound `Nc1c(F)c(F)nc(F)c1F`, the Kd was > 4 mM (inactive).
`N#Cc1nc(-c2ccccc2Cl)oc1N1CCOCC1`: the Kd is > 4 mM (inactive).
With `Cc1ccc(CNc2ccc(O)cc2)cc1`, the Kd is > 4 mM (inactive).
With `N#CCN1C(=O)c2ccccc2S1(=O)=O`, the Kd was > 4 mM (inactive).
Turning to `CCOC(=O)C1CCN(Cc2ccccc2)CC1`, the Kd was > 4 mM (inactive).
Consider `CC1CCN(C(=O)c2cc3ccccc3o2)CC1`, for which the Kd is > 4 mM (inactive).
On to `Nc1nc2ccc(S(N)(=O)=O)cc2s1`, for which the Kd was > 4 mM (inactive).
As for `CCOC(=O)C1CCNCC1`, the Kd was > 4 mM (inactive).
As to `COC(=O)c1ccc2snnc2c1`, the Kd is > 4 mM (inactive).
Under `O=C(O)C1CC(C2CCCCN2)CN2CCCCC12` (configuration not stated) stands > 4 mM (inactive).
In the case of `COc1ccc2c(c1)OC/C(=C\c1ccc(OC)c(O)c1)C2=O`, the Kd is > 4 mM (inactive).
With `c1cnc(N2CCSCC2)nc1`, the Kd was > 4 mM (inactive).
As for `NC(=O)c1cccc2c(=O)oc3ccccc3c12`, the Kd is > 4 mM (inactive).
In the case of `CSc1nc(C)cc(Oc2ccc(=O)n(C)n2)n1`, the Kd was > 4 mM (inactive).
`O=C1NC(=Nc2ccccc2Cl)SC1(CO)CO`: the Kd was > 4 mM (inactive).
In the case of `Cc1cc(=O)n2ncn(Cc3ccccc3)c2n1`, the Kd is > 4 mM (inactive).
Turning to `Cc1ccc2c(C)c(C(=O)Nc3nnc(C)s3)oc2c1`, the Kd was > 4 mM (inactive).
Take `COc1cc(O)c(C(C)=O)c(OC)c1`: the Kd is > 4 mM (inactive).
As to `Cc1nc(-c2cccc(-c3noc(C)n3)c2)no1`, the Kd is > 4 mM (inactive).
For `C=CCNC(=O)c1ccc(Cl)cc1Cl`, the Kd is > 4 mM (inactive).
For the compound `CCN1CCC2(CC1)CC1CC3C=CC1(CN2C(C)=O)O3` (configuration not stated), the Kd is > 4 mM (inactive).
As to `C[C@@H]1OC(O[C@H]2[C@H](OC(=O)[C@]34CCC(C)(C)CC3C3=CCC5[C@@]6(C)CC[C@H](OC7O[C@@H](C)[C@H](O[C@@H]8OC[C@@H](O)[C@H](O)[C@H]8O)[C@@H](O)[C@H]7O)C(C)(C)C6CC[C@@]5(C)[C@]3(C)CC4O)OC[C@H](O)[C@H]2O)[C@H](O)[C@H](O)[C@H]1O[C@@H]1O[C@H](CO)[C@@H](O)[C@H](O)[C@H]1O` (some centres not stated), the Kd is > 4 mM (inactive).
With `Nc1ccccc1-c1nc2ccccc2[nH]1`, the Kd is > 4 mM (inactive).
On to `CC(C)C1COc2cc3oc(=O)ccc3cc2O1` (configuration not stated), for which the Kd is > 4 mM (inactive).
In the case of `CC(C)c1c(O)ccc2c1CCC1[C@@](C)(CO)CCC[C@]21C` (some centres not stated), the Kd was > 4 mM (inactive).
On to `Cc1cc(N)n(C2CCOC(C)(C)C2)n1` (configuration not stated), for which the Kd is > 4 mM (inactive).
As to `Cc1ccc2cc(N)ccc2n1`, the Kd is > 4 mM (inactive).
Under `CC(=O)O[C@H]1C[C@@H](OC(C)=O)C(C)(C)C2C[C@@H](OC(C)=O)[C@]3(C)C(CC[C@@]4(C)[C@H](c5ccoc5)OC(=O)[C@H]5O[C@]543)[C@]21C` (some centres not stated) stands > 4 mM (inactive); under `CN1CCN(c2nc3c(c(=O)[nH]2)CCCC3)CC1`, > 4 mM (inactive); under `O=C(CN1C(=O)CCC1=O)c1ccccc1`, > 4 mM (inactive).
On to `CSc1nc(-c2ccco2)nn1S(C)(=O)=O`, for which the Kd was > 4 mM (inactive).
On to `CC(=O)N/N=C(\C)c1cccc(N)c1`, for which the Kd was > 4 mM (inactive).
For `C[C@@H]1C(=O)OC2[C@H](O)C34[C@@H]5OC(=O)[C@@]3(O[C@@H]3OC(=O)[C@H](O)[C@@]34[C@H](C(C)(C)C)[C@H]5O)[C@]21O` (some centres not stated), the Kd was > 4 mM (inactive).
Under `O=C(O)c1ccc(-n2cncn2)cc1` stands > 4 mM (inactive).
For the compound `Cc1cc(SCCF)n2ncnc2n1`, the Kd was > 4 mM (inactive).
`O=c1c2ccccc2nc2n1CCC2O` (configuration not stated): the Kd was > 4 mM (inactive).
Under `O=C(O)c1ccc2nsnc2c1` stands > 4 mM (inactive); under `O=C1N=C(N2CCOCC2)S/C1=C\c1cccnc1`, > 4 mM (inactive); under `Nc1cccc(F)c1-c1ncon1`, > 4 mM (inactive).
`Cc1cc(C(=O)NCc2ccco2)cs1`: the Kd was > 4 mM (inactive).
Regarding `COc1cc([C@@H]2c3cc4c(cc3[C@H](O)[C@H]3COC(=O)[C@H]23)OCO4)cc(OC)c1OC`, the Kd was > 4 mM (inactive).
The same measure for `N=C1/C(=C\c2ccccc2)C(=O)N=C2SC=NN12`: > 4 mM (inactive).
Turning to `O=[N+]([O-])c1cccc(-c2nnco2)c1`, the Kd was > 4 mM (inactive).
Turning to `C[C@]12C=CC(=O)C=C1CCC1C2CC[C@]2(C)C(=O)CCC12` (some centres not stated), the Kd was > 4 mM (inactive).
